Test results reported in patent US8404650B2, “Methods of treating cancer with doxazolidine and prodrugs thereof” (priority 2005, dated 2013).

Columns and labels:
[1] = Hydrolytic stability of Doxaz carbamate prodrugs in aqueous media; assay type: physicochemical; conditions: pH 7.4 buffer, no cells or growth media, 24 h, ambient temperature, HPLC
DU-145 = experiment: Growth inhibition of DU-145 prostate cancer cells; assay type: cell-based
Procedure: (§1) In vitro Activity. […] This cell suspension was dispensed in 200 μL aliquots (1000 cells/well) into the inside wells of 96-well tissue culture plates. Outside wells contained 200 μL of media. […] The medium was replaced with 90 μL of growth medium prior to addition of the drug. Doxaz was dissolved in DMSO at concentrations ranging from 50 μM to 1 mM. […] Serial dilutions (1:3 and 1:10) were made in sterile DMSO to yield seven solutions of decreasing drug concentration at 100× the respective working concentrations. […] Additionally, two lanes were treated with 10 μL of growth medium containing 10% sterile DMSO and one lane was treated with 90 μL of 1.5 M Tris HCl. […]
(§2) SHP-77 small cell lung cancer cells were also of interest because they express modest amounts of both enzymes. Inhibition of the growth of cardiomyocytes was used as a measure of cardiotoxicity, and inhibition of the growth of Vero cells, green monkey kidney cells, was again used as another measure of toxicity to normal cells.
A more thorough characterization of the growth inhibition of a variety of cancer cells as well as rat cardiomyocytes by Formula IV (aFK-PABC-Doxaz) was evaluated in comparison with inhibition of growth by Doxaz, Dox and aFK-PABC-Dox. […] […] The breast cancer cell lines represent the multi-drug resistant (MDR) phenotype with MCF-7/Adr cells and a cell line that is transfected with the gene for urokinase plasminogen activator (uPA), the primary enzyme responsible for cleavage of plasminogen to plasmin. Rat cardiomyocytes served as a model for comparison of drug cardiotoxicity.

Hep G2 = experiment: Growth inhibition of Hep G2 liver cancer cells; assay type: cell-based, human; conditions: crystal violet
Source text: (§3) Cell growth inhibition experiments initially focused on MCF-7, MCF-7/Adr, SK-HEP-1, and Hep G2 cancer cells as well as rat cardiomyocytes as a measure of cardiotoxicity and Vero cells (green monkey kidney cells) as an additional measure of normal cell toxicity. […]

MCF-7 = experiment: Growth inhibition of MCF-7 sensitive breast cancer cells (colony formation, crystal violet); assay type: cell-based, human
Procedure: as §1
(§4) Cell growth inhibition experiments initially focused on MCF-7, MCF-7/Adr, SK-HEP-1, and Hep G2 cancer cells as well as rat cardiomyocytes as a measure of cardiotoxicity and Vero cells (green monkey kidney cells) as an additional measure of normal cell toxicity.
(§5) Activity of plasmin-activated prodrugs.
(§6) A more thorough characterization of the growth inhibition of a variety of cancer cells as well as rat cardiomyocytes by Formula IV (aFK-PABC-Doxaz) was evaluated in comparison with inhibition of growth by Doxaz, Dox and aFK-PABC-Dox. Cells were treated with drug for 3 h and colony growth was measured at 3 to 5 days when cells reached about 80% confluence. […] The breast cancer cell lines represent the multi-drug resistant (MDR) phenotype with MCF-7/Adr cells and a cell line that is transfected with the gene for urokinase plasminogen activator (uPA), the primary enzyme responsible for cleavage of plasminogen to plasmin. Rat cardiomyocytes served as a model for comparison of drug cardiotoxicity.

SK-HEP-1 = experiment: Growth inhibition of SK-HEP-1 liver cancer cells; assay type: cell-based, human; conditions: crystal violet
Source text: as §3

[2] = test system: H9c2(2-1) rat cardiomyocytes; experiment: Growth inhibition of rat cardiomyocytes as a measure of cardiotoxicity; assay type: cell-based; conditions: 24 h drug treatment; crystal violet
Procedure: Biological activity of simple Doxazolidine carbamates. Since the prodrug carbamates were designed to be activated by carboxylesterases CES1 (hCE1) and/or CES2 (hiCE), cell lines of interest were measured for expression of the respective mRNAs using reverse transcription (RT) followed by PCR (polymerase chain reaction). Cancer cell lines investigated included SHP-77 resistant small cell lung, DU-145 prostate, MCF-7 sensitive breast, MCF-7/Adr resistant breast, SK-HEP-1 liver, and Hep G2 liver cells. As a measure of possible cardiotoxicity, H9c2(2-1) rat cardiomyocytes were also investigated. Cardiotoxicity is relevant because the ultimate product of metabolism and subsequent hydrolysis of these carbamates is doxorubicin, which is cardiotoxic. […] Additionally, the rat cardiomyocytes, H9c2(2-1), also express more CES2 than CES1.
Cell growth inhibition experiments initially focused on MCF-7, MCF-7/Adr, SK-HEP-1, and Hep G2 cancer cells as well as rat cardiomyocytes as a measure of cardiotoxicity and Vero cells (green monkey kidney cells) as an additional measure of normal cell toxicity. The butyl and pentyl carbamates inhibited the growth of MCF-7, MCF-7/Adr, and SK-HEP-1 cell lines with a 24 h drug treatment period with some selectivity for cancer cells over cardiomyocytes relative to growth inhibition by Dox as shown in Table 2. […] The relative inactivity of the ethyl carbamate may indicate that a substantial lipophilic interaction is required at the active site of the carboxylesterases to hold the Doxaz substrate.
Biological activity of Doxazolidine carbamates with self-eliminating spacer. […] SHP-77 small cell lung cancer cells were also of interest because they express modest amounts of both enzymes. Inhibition of the growth of cardiomyocytes was used as a measure of cardiotoxicity, and inhibition of the growth of Vero cells, green monkey kidney cells, was again used as another measure of toxicity to normal cells. They also show more activity against the cancer cells that express higher levels of CES1. Of particular note is the higher activity against Hep G2 cells than against SK-HEP-1 cells. […] The low toxicity of pentyl PABC-Doxaz to cardiomyocytes relative to the toxicity of Dox is encouraging and consistent with the low level of expression of CES1 in cardiomyocytes.
A more thorough characterization of the growth inhibition of a variety of cancer cells as well as rat cardiomyocytes by Formula IV (aFK-PABC-Doxaz) was evaluated in comparison with inhibition of growth by Doxaz, Dox and aFK-PABC-Dox. Cells were treated with drug for 3 h and colony growth was measured at 3 to 5 days when cells reached about 80% confluence. The cancer cells included one prostate cancer cell line (DU-145), three related breast cancer cell lines (MCF-7, MCF-7/Adr, and MCF-7 uPA), and one pancreatic cancer cell line (Mia PaCa-2). The breast cancer cell lines represent the multi-drug resistant (MDR) phenotype with MCF-7/Adr cells and a cell line that is transfected with the gene for urokinase plasminogen activator (uPA), the primary enzyme responsible for cleavage of plasminogen to plasmin. Rat cardiomyocytes served as a model for comparison of drug cardiotoxicity. Growth inhibition was also measured with added plasmin. aFK-PABC-Doxaz inhibited the growth of most of the cancer cells 0.5 log or more better than did aFK-PABA-Dox. Although not as dramatic, this differential response paralleled the differential response between Doxaz and Dox which is approximately two logs except for the MDR expressing, MCF-7/Adr cells which show more than three logs differential response. […] Addition of 0.01 unit/mL of plasmin has no effect on the activity of Dox but increases the activity of both aFK-PABC-Doxaz and aFK-PABC-Dox, in some cases by more than a log. Addition of 0.01 unit/mL plasminogen increases the activity of aFK-PABC-Doxaz on average by 0.3 log. […]

Vero cells = experiment: Growth inhibition of Vero cells as a measure of normal cell toxicity (MTT); assay type: cell-based, green monkey
Source text: as §4, §2

SHP-77 = experiment: Growth inhibition of SHP-77 small cell lung cancer cells; assay type: cell-based; conditions: 24 h drug treatment; crystal violet
Source text: as §2

MCF-7/Adr = experiment: Growth inhibition of multidrug resistant MCF-7/Adr breast cancer cells (crystal violet); assay type: cell-based
Procedure: as §1, §4, §5, §6

[3] = Uptake of pentyl carbamate relative to Dox, flow cytometry, with and without fetal bovine serum; assay type: cell-based
Procedure: Uptake of the pentyl carbamate relative to uptake of Dox was measured by flow cytometry, monitoring fluorescence of the Dox fluorophore as a measure of drug in cells. The measurements were performed over a period of 3 h in the presence and absence of fetal bovine serum, and the results are shown in FIG. 4. […] Further, the presence of 10% fetal bovine serum decreased the uptake of doxorubicin and the pentyl carbamate by about 25%. The more rapid uptake of the pentyl carbamate in the presence and absence of serum probably reflects its increased hydrophobicity relative to that of doxorubicin which is a cation at physiological pH. Increased hydrophobicity may also be the explanation for the effect of serum on the uptake of the carbamate; namely, the carbamate binds to serum proteins reducing drug uptake.

[4] = buffer; cited from earlier work
cancer cells = conditions: background statement; cited from earlier work
αvβ3 integrin = αvβ3 integrin (Homo sapiens, UniProt P05106+P06756); conditions: cited from earlier work
αvβ3 integrin, sequence (P06756 31-889 limits assumed): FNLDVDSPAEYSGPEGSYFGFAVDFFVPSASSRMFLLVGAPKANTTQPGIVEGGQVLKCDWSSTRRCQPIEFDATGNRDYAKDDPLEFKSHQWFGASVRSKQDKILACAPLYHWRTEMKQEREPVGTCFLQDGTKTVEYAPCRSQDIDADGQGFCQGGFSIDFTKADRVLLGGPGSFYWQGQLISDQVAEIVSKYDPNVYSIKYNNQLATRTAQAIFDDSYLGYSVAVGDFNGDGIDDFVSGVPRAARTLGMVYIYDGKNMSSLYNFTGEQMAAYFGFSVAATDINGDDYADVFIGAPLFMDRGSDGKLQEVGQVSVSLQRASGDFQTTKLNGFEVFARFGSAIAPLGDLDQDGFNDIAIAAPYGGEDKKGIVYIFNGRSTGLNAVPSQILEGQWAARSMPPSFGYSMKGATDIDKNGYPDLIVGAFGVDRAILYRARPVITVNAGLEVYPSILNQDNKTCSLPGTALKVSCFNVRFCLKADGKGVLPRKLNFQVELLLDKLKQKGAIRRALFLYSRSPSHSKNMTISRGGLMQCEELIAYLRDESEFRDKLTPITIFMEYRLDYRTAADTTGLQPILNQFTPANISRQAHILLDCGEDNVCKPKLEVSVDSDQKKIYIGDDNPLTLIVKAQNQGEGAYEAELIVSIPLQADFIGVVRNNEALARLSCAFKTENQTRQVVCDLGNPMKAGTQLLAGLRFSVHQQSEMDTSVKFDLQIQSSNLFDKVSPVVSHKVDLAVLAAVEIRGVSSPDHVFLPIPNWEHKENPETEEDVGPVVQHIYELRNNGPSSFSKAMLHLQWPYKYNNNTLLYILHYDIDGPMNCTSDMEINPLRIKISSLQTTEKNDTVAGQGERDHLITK
αvβ3 integrin, sequence (P06756 891-1048 partner limits assumed): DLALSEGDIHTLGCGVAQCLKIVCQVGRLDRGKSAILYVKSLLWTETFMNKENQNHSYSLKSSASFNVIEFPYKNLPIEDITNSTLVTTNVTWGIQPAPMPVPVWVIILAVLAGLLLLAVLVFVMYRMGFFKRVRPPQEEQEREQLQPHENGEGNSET
αvβ3 integrin, sequence (P05106 27-788): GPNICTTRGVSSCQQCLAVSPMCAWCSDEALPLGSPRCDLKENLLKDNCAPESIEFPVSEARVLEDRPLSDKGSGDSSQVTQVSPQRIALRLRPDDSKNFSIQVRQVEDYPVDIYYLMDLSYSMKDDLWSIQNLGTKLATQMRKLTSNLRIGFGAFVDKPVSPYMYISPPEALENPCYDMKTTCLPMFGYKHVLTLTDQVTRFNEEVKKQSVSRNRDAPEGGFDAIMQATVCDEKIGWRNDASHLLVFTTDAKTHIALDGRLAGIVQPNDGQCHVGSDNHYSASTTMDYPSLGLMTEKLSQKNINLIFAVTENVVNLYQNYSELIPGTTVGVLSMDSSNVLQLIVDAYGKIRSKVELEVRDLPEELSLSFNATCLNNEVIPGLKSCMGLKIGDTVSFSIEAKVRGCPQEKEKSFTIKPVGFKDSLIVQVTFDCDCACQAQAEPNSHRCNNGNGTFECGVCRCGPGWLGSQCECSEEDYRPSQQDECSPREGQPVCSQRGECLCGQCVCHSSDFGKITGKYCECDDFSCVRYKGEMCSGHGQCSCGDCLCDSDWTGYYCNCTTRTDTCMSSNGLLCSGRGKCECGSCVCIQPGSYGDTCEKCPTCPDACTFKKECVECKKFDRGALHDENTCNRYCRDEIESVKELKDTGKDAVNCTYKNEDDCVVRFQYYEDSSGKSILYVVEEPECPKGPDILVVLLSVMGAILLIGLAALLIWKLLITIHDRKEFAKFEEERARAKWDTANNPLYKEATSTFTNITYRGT

[5] = 24 h drug treatment, crystal violet

CCCCCOC(=O)N1COC2C(C)OC(OC3CC(O)(C(=O)CO)Cc4c(O)c5c(c(O)c43)C(=O)c3c(OC)cccc3C5=O)CC21 (stereo not drawn) [Doxaz Pentyl Carbamate]
Stability to hydrolysis in buffer [1]: stable to hydrolysis | Cell growth inhibition IC50, DU-145 (DU-145; [5]): −6.0 ± 0.04 log of molar concentrations | Growth inhibition IC50, Hep G2, 3 h (Hep G2; 3 h drug treatment): >−6 log of the molar concentration | Growth inhibition IC50, Hep G2, 24 h (Hep G2; 24 h drug treatment): −6.5 ± 0.3 log of the molar concentration | Growth inhibition IC50, MCF-7, 3 h (MCF-7; 3 h drug treatment, crystal violet): >−6 log of the molar concentration | Growth inhibition IC50, MCF-7, 24 h (MCF-7; [5]): −6.1 ± 0.03 log of the molar concentration | Growth inhibition IC50, SK-HEP-1, 3 h (SK-HEP-1; 3 h drug treatment): >−6 log of the molar concentration | Growth inhibition IC50, SK-HEP-1, 24 h (SK-HEP-1; 24 h drug treatment): −6.7 ± 0.1 log of the molar concentration | Growth inhibition IC50, H9c2(2-1), 24 h [2]: −6.6 ± 0.1 log of the molar concentration | Growth inhibition IC50, Vero, 3 h (Vero cells; 3 h drug treatment): −5.4 ± 0.1 log of the molar concentration | Growth inhibition IC50, Vero, 24 h (Vero cells; 24 h drug treatment): −5.3 ± 0.01 log of the molar concentration | Cell growth inhibition IC50, SHP-77 (SHP-77): −6.3 ± 0.3 log of molar concentrations | Growth inhibition IC50, MCF-7/Adr, 24 h (MCF-7/Adr; [5]): −6.0 ± 0.09 log of the molar concentration | Decrease of uptake by 10% fetal bovine serum ([3]; 10% fetal bovine serum, flow cytometry, 3 h): about 25% | Uptake relative to Dox ([3]; flow cytometry over 3 h, with and without serum): taken up at a higher level and more rapidly than Dox

COc1cccc2c1C(=O)c1c(O)c3c(c(O)c1C2=O)C[C@@](O)(C(=O)CO)C[C@@H]3O[C@H]1C[C@H]2C(OCN3CN2CO[C@H]2[C@@H](C)O[C@@H](O[C@H]4C[C@](O)(C(=O)CO)Cc5c(O)c6c(c(O)c54)C(=O)c4c(OC)cccc4C6=O)C[C@@H]23)[C@H](C)O1 (stereo partly drawn) [EpiF, Epidoxoform, reference compound]
IC50 (DU-145; Homo sapiens, DU-145, 3 h, read-out: IC50 DU-145): 26 ± 5 nM | IC50 (MCF-7; Homo sapiens, MCF7, 3 h, read-out: IC50 MCF-7): 65 nM | Half-life, stability in water with respect to loss of formaldehyde [4]: 2 h | Less active than DoxF in cancer cell growth inhibition (cancer cells): 50 fold | IC50 (MCF-7/Adr; Homo sapiens, NCI/ADR-RES, 3 h, read-out: IC50 MCF-7/Adr): 70 nM

Lys-Arg-Gly-Asp-phe (KRGD; C-terminal D-Phe; printed: Lys-Arg-Gly-Asp-) [KRGDf]
Specificity for αvβ3 over αIIbβ3 platelet receptor (αvβ3 integrin): 1000 fold
